{"source": "patent US5919631A", "about": "“Method of determining the degree of aggregation of the β-A4 peptide” (Hoechst Marion Roussel, Inc., priority 1996, dated 1999)", "molecular_target": "β-amyloid (βA4) peptide (Homo sapiens, UniProt P05067)", "sequence (P05067 672-713 limits assumed)": "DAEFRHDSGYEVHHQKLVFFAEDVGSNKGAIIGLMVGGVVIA", "details": "37° C.; for percent decrease in aggregation of β-amyloid: 25 μM β-amyloid; for percent decrease in aggregation of β-amyloid / percentage of increase of aggregation: 48 hours", "procedure": "β-amyloid (also known as (βA-4) peptide was dissolved in 100% dimethylsulfoxide (DMSO) at 10 mg/ml (or 2500 μM) concentration. The resultant solution was diluted to 1 mg/ml (or 250 μM) stock in Phosphate Buffered Saline (PBS), pH 7.4, just prior to setting up the assay and dispensed in individual sample wells of a Corning 96-well plate at 16 μl per well (i.e. a final concentration of 25 μM). All treatments were done in triplicate.\nIn this example, the candidate compound was added to the test wells at three different concentrations (250 μM, 500 μM and 1 mM). Total volume in each well was brought up to 160 μl with PBS. For untreated control wells, no compound was added to the β-amyloid peptide, and the total volume was made to 160 μl with PBS. The plates were sealed with parafilm and incubated at 37° C. for 48 hours.\n(§1) At the end of the incubation period, the plates were taken out and 25 μl of Bio-Rad protein assay dye reagent (Bradford dye) was added to all the wells with samples. A standard curve was also set up at this time for estimation of fresh (also considered as unaggregared) peptide absorbance. The dye was mixed by pipeting and the plates quickly spun at 2500 rpm to remove bubbles.\nThe Absorbance was read at 595 nm in a Dynatech MR5000 plate reader 15 minutes after adding the dye.\nThe procedure of Example 1 was repeated except that hydrogen peroxide (10 μl of 30% stock) was added to the wells in a 96-well plate with 16 μl of the 1 mg/ml β-amyloid stock. The final volume was then brought up to 160 μl by adding 134 μl of PBS to these wells. The plate was sealed and incubated at 37° C. for 48 hours.\nas §1, with “samples as in Example 1.” for “samples.”, “again used” for “also set up at this time”, “unaggregated)” for “unaggregared)”\nThe absorbance was read at 595 nm in the Dynatech MR5000 plate reader 15 minutes after adding the dye. The amount of aggregation was estimated by subtracting background and taking the difference between the fresh and hydrogen peroxide treated β-amyloid readings. The difference was expressed as percent over fresh or unaggregated peptide.", "note": "Where two headings read alike, the source gives them in different places."}
{"molecule": "OO", "note": "[hydrogen peroxide]", "values": [{"measurement": "percentage of aggregation (difference between fresh and treated β-amyloid, percent over fresh peptide)", "setting": "10 μl of 30% stock in 160 μl, after 48 hrs", "result": 97.7, "unit": "%"}]}
{"molecule": "CCCn1cnc2c1c(=O)n(CCCCC(C)=O)c(=O)n2C", "note": "[propentofylline, 1-(5'-oxohexyl)-3-methyl-7-propyl-2,6-(1H,3H)-purinedione]", "values": [{"measurement": "percent decrease in aggregation of β-amyloid", "setting": "500 μM compound", "result": 29.68, "unit": "%"}, {"measurement": "percent decrease in aggregation of β-amyloid", "setting": "1 mM compound", "result": 37.4, "unit": "%"}]}
{"molecule": "pentosan polysulfate", "values": [{"measurement": "percentage of increase of aggregation", "setting": "0.5 μM compound", "result": 40.8, "unit": "%"}, {"measurement": "percentage of increase of aggregation", "setting": "5 μM compound", "result": 57.1, "unit": "%"}, {"measurement": "percentage of increase of aggregation", "setting": "50 μM compound", "result": 62.9, "unit": "%"}]}
